Assay results as given in US10323018B2 (Millennium Pharmaceuticals, Inc., priority 2015, dated 2019).
pIC50: −log10 of the molar value.

Legend:
hNAMPT protein = hNAMPT protein (Homo sapiens (Human), UniProt P43490); assay: NAMPT enzyme assay (TR-FRET/HTRF with BodiPY ligand); format: binding; settings: for inhibition at 1 µM: NAMPT inhibition at compound concentration 1 μM, read-out: Percent Inhibition; for pIC50: NAMPT inhibition, IC50 range class
Procedure, shortened: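 His-tagged hNAMPT with anti-6His-Tb, incubated with compound and BodiPY ligand for 1 h at rt in the dark, in Tris-HCl pH 7.5 buffer with DTT, NaCl, MgCl2 and Tween 20. TR-FRET measured with 320 nm excitation as the 520/486 nm emission ratio. IC50 fitted relative to DMSO controls.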

PC3 cells = assay: PC3 growth inhibition (Cell-titer glo, 72 hours); format: cell-based; settings: Homo sapiens, PC-3, 72 h, read-out: Percent Viability, PC3 cells, compound concentration 1.667 μM, 72 hours
Procedure, shortened: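 PC3 cells grown in RPMI1640 plated at 8×10^4 cells/ml, incubated overnight, then exposed to compound diluted in AIM serum-free medium for 72 h at 37 °C, 5% CO2. Luminescence by CellTiter-Glo relative to DMSO controls; % viability at single concentration, GI50 or LD50 from concentration-response curves.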

Chain of hNAMPT protein (P43490 whole entry): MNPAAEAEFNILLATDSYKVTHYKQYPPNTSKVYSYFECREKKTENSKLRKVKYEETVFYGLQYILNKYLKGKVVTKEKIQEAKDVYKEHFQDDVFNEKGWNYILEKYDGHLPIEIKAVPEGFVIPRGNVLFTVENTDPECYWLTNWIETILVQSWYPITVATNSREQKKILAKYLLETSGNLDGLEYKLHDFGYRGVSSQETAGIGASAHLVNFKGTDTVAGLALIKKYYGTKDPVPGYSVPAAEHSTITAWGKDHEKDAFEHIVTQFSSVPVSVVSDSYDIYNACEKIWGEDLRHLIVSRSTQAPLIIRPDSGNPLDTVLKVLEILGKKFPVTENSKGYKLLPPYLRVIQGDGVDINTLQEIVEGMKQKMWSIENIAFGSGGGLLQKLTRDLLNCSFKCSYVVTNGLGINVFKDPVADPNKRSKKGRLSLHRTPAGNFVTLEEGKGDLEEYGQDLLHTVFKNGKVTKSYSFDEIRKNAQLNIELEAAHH

SMILES | inhibition at 1 µM (hNAMPT protein) [%] | pIC50 (hNAMPT protein) | viability at 1.667 µM (PC3 cells) [%]
CCOc1cc(-c2ccn(C)c(=O)c2)nc2cc(C(=O)NCCCc3nnc[nH]3)ccc12 [Compound I-118, 4-ethoxy-2-(1-methyl-2-oxo-1,2-dihydropyridin-4-yl)-N-[3-(4H-1,2,4-triazol-3-yl)propyl]quinoline-7-carboxamide] | 99 | 7.30 to 8.00 | 2
CCOc1cc(-c2ccc(OC)nc2OC)nc2cc(C(=O)NCCCc3nnc[nH]3)ccc12 [Compound I-143, 2-(2,6-dimethoxypyridin-3-yl)-4-ethoxy-N-[3-(4H-1,2,4-triazol-3-yl)propyl]quinoline-7-carboxamide] | 97 | 7.30 to 8.00 | 2
CCCc1nc(-c2ccc(Cl)cc2)nc2cc(C(=O)NCCCc3ncc[nH]3)ccc12 [Compound I-4, 2-(4-chlorophenyl)-N-[3-(1H-imidazol-2-yl)propyl]-4-propylquinazoline-7-carboxamide] | 99 | > 8.00 | 1
O=C(NCCCc1ncc[nH]1)c1ccc2c(C3CC3)nc(-c3ccc(Cl)cc3)nc2c1 [Compound I-31, 2-(4-chlorophenyl)-4-cyclopropyl-N-[3-(1H-imidazol-2-yl)propyl]quinazoline-7-carboxamide] | 97 | 7.30 to 8.00 | 1
CCOc1cc(-c2ccc(C(F)(F)F)nc2)nc2cc(C(=O)NCCCc3nnc[nH]3)ccc12 [Compound I-217, 4-ethoxy-N-[3-(4H-1,2,4-triazol-3-yl)propyl]-2-[6-(trifluoromethyl)pyridin-3-yl]quinoline-7-carboxamide] | 94 | 7.30 to 8.00 | 2
CCOc1cc(-c2cc(F)cnc2OC)nc2cc(C(=O)NCCCc3nnc[nH]3)ccc12 [Compound I-161, 4-ethoxy-2-(5-fluoro-2-methoxypyridin-3-yl)-N-[3-(4H-1,2,4-triazol-3-yl)propyl]quinoline-7-carboxamide] | 97 | 7.30 to 8.00 | 2
COc1cc(-c2nc(-c3ccc(F)cc3)nc3cc(C(=O)NCCCc4ncc[nH]4)ccc23)ccn1 [Compound I-196, 2-(4-fluorophenyl)-N-[3-(1H-imidazol-2-yl)propyl]-4-(2-methoxypyridin-4-yl)quinazoline-7-carboxamide] | 100 | > 8.00 | 1
CCOc1cc(-c2ccc(=O)n(C)c2)nc2cc(C(=O)NCCCc3cnn[nH]3)ccc12 [Compound I-96, 4-ethoxy-2-(1-methyl-6-oxo-1,6-dihydropyridin-3-yl)-N-[3-(1H-1,2,3-triazol-5-yl)propyl]quinoline-7-carboxamide] | > 99 | > 8.00 | 1
CCOc1cc(-c2ccc(F)cc2)nc2cc(C(=O)NCc3cc4[nH]ncc4s3)ccc12 [Compound I-80, 4-ethoxy-2-(4-fluorophenyl)-N-(1H-thieno[3,2-c]pyrazol-5-ylmethyl)quinoline-7-carboxamide] | 98 | > 8.00 | 2
CCOc1cc(-c2ccc(F)cc2)nc2cc(C(=O)NCCCc3nnc[nH]3)ccc12 [Compound I-5, 4-ethoxy-2-(4-fluorophenyl)-N-[3-(4H-1,2,4-triazol-3-yl)propyl]quinoline-7-carboxamide] | 100 | > 8.00 | 1
CCOc1cc(-c2cc(OC)ncc2Cl)nc2cc(C(=O)NCCCc3nnc[nH]3)ccc12 [Compound I-164, 2-(5-chloro-2-methoxypyridin-4-yl)-4-ethoxy-N-[3-(4H-1,2,4-triazol-3-yl)propyl]quinoline-7-carboxamide] | 97 | > 8.00 | 2
CCOc1cc(-c2cc(OC)ncc2F)nc2cc(C(=O)NCCc3cnn[nH]3)ccc12 [Compound I-189, 4-ethoxy-2-(5-fluoro-2-methoxypyridin-4-yl)-N-[2-(1H-1,2,3-triazol-5-yl)ethyl]quinoline-7-carboxamide] | 74 | < 7.00 | > 99
CCOc1cc(N2CCCC2)nc2cc(C(=O)NCCCc3ncc[nH]3)ccc12 [Compound I-62, 4-Ethoxy-N-[3-(1H-imidazol-2-yl)propyl]-2-(pyrrolidin-1-yl)quinoline-7-carboxamide] | 95 | 7.00 to 7.30 | 2
CCOc1cc(-c2cc(C)cnc2OC)nc2cc(C(=O)NCCCc3nnc[nH]3)ccc12 [Compound I-159, 4-ethoxy-2-(2-methoxy-5-methylpyridin-3-yl)-N-[3-(4H-1,2,4-triazol-3-yl)propyl]quinoline-7-carboxamide] | 99 | 7.30 to 8.00 | 2
CCOc1cc(C2=CCOCC2)nc2cc(C(=O)NCCCc3nnc[nH]3)ccc12 [Compound I-140, 2-(3,6-dihydro-2H-pyran-4-yl)-4-ethoxy-N-[3-(4H-1,2,4-triazol-3-yl)propyl]quinoline-7-carboxamide] | 91 | 7.00 to 7.30 | 2
CCOc1cc(-c2ccnc(OC)c2)nc2cc(C(=O)NCCCc3ccn[nH]3)ccc12 [Compound I-155, 4-ethoxy-2-(2-methoxypyridin-4-yl)-N-[3-(1H-pyrazol-5-yl)propyl]quinoline-7-carboxamide] | 98 | 7.30 to 8.00 | 2
CCOc1cc(-c2ccc(OC)nc2)nc2cc(C(=O)NCCCc3ccn[nH]3)ccc12 [Compound I-154, 4-ethoxy-2-(6-methoxypyridin-3-yl)-N-[3-(1H-pyrazol-5-yl)propyl]quinoline-7-carboxamide] | 96 | 7.30 to 8.00 | 3
O=C(NCCCc1ncc[nH]1)c1ccc2c(CN3CCSCC3)nc(-c3ccc(Cl)cc3)nc2c1 [Compound I-26, 2-(4-chlorophenyl)-N-[3-(1H-imidazol-2-yl)propyl]-4-(thiomorpholin-4-ylmethyl)quinazoline-7-carboxamide] | 89 | < 7.00 | 1
COCCOc1cc(-c2ccc(F)cc2)nc2cc(C(=O)NCCCc3ncc[nH]3)ccc12 [Compound I-156, 2-(4-fluorophenyl)-N-[3-(1H-imidazol-2-yl)propyl]-4-(2-methoxyethoxy)quinoline-7-carboxamide] | 100 | > 8.00 | 2
COCCOc1cc(-c2ccnc(OC)c2)nc2cc(C(=O)NCc3ccn4ncnc4c3)ccc12 [Compound I-67] | 85 | – | 3
CCOc1cc(-c2cncnc2)nc2cc(C(=O)NCCCc3nnc[nH]3)ccc12 [Compound I-208, 4-ethoxy-2-(pyrimidin-5-yl)-N-[3-(4H-1,2,4-triazol-3-yl)propyl]quinoline-7-carboxamide] | 86 | < 7.00 | 2
CCOc1cc(-c2cccc(S(C)(=O)=O)c2)nc2cc(C(=O)NCCCc3nnc[nH]3)ccc12 [Compound I-137, 4-ethoxy-2-[3-(methylsulfonyl)phenyl]-N-[3-(4H-1,2,4-triazol-3-yl)propyl]quinoline-7-carboxamide] | 97 | 7.30 to 8.00 | 2
